Results from patent publication US20250269018A1, “COMBINED CANCER THERAPY WITH AN EPITHELIAL CELL ADHESION MOLECULE (EPCAM) INHIBITOR AND A HEPATOCYTE GROWTH FACTOR RECEPTOR (HGFR) INHIBITOR” (ACADEMIA SINICA, priority 2021, published 2025).

Legend:
[1] = test system: HT29 cells; experiment: Transwell invasion assay with matrigel, HT29; type: cell-based, human; details: 10 μg/ml EpAb2-6 and 10 μM crizotinib, 24 h, vs control IgG, FIG. 7G
Description: Cell migration and invasion were assayed with 8-μm pore size Transwell migration chambers (Millicell) without or with 10% matrigel. Cells (1×10^5) were added to the upper chamber in 500 μl serum-free DMEM. Then, 700 μl DMEM containing 10% FBS was added to the lower chamber as a chemoattractant. Migration and invasion were allowed to proceed for 16 h at 37° C. in a standard cell culture incubator. Then, cells were removed from the upper surface of the membranes with cotton swabs, and the cells that had migrated to the lower surface were stained with 0.05% (w/v) crystal violet in 4% paraformaldehyde (in 1×PBS) for 15 min and washed with water. Membranes were dried for 15-20 min before at least four random fields on the membrane examined at high power were counted for each experimental condition.

[2] = test system: HCT116 cells; experiment: Apoptosis assay, annexin V-FITC/PI double labeling, HCT116; type: cell-based, human
Description: (§1) FIGS. 7A to 7G. EpAb2-6 binds EpEX and induces apoptosis by F(ab′)2 and inhibits regulated intramembrane proteolysis (RIP) activation and HGFR signaling. (FIG. 7A) Binding affinity of IgG EpAb2-6 (mouse) and F(ab′)2 to EpEX-His (1 μg/ml) coated overnight was checked using ELISA (OD450). (FIG. 7B) HCT116 cells were treated with 100 μg/ml control IgG, Fc, or F(ab′)2 of EpAb2-6 for 24 h. The apoptotic and necrotic cells were quantified by fluorescein annexin V-FITC/PI double labeling. (FIG. 7C) HCT116 and HT29 cells were treated with 10 μg/ml control IgG, MT201, humanized EpAb2-6 (hEpAb2-6) or mouse hybridoma EbAb2-6 (mEpAb2-6) for 24 h. The apoptotic and necrotic cells were quantified by fluorescein annexin V-FITC/PI double labeling. (FIG. 7D) HCT116 cells were treated with 10 μg/ml control IgG, MT201, hEpAb2-6 or mEpAb2-6 for 16 h, followed by treatment with EpEX-His (50 nM) for 15 min. Levels of phosphorylated HGFR, AKT, and ERK, and (FIG. 7E) RIP proteins ADAM17 and presenilin 2 were examined by Western blotting. Anti-EpCAM antibody and crizotinib coordinately induces apoptosis in colon cancer cells. (FIG. 7F) HCT116 and HT29 cells were treated with 10 μg/ml NMIgG or EpAb2-6 and 4 μM HGFR inhibitor crizotinib for 24 h. The apoptotic and necrotic cells were quantified by fluorescein annexin V-FITC/PI double labeling. (FIG. 7G) HCT116 and HT29 cells were treated with 10 μg/ml NMIgG or EpAb2-6 and 10 μM HGFR inhibitor crizotinib. Cell invasion was assessed by a Transwell assay with matrigel after 24 h.
(§2) Cells were seeded and treated with 10 μg/ml mAb or inhibitor for 6 h; an unrelated mouse myeloma immunoglobulin used at appropriate dilution served as the IgG2a (Invitrogen #02-6200) isotype control. Apoptotic cells were detected using Annexin V-FITC and PI, and were analyzed using a flow cytometer (BD Immmunocytometry Systems). Early apoptosis was measured with the Annexin V-FITC Apoptosis Detection kit II (BD Pharmingen). Late apoptotic nuclei were detected with propidium iodide (PI) staining.

[3] = test system: HT29 cells; experiment: Apoptosis assay, annexin V-FITC/PI double labeling, HT29; type: cell-based, human; details: 10 μg/ml EpAb2-6 and 4 μM crizotinib 24 h, FIG. 7F
Description: as §1, §2

[4] = test system: HCT116 or HT29; experiment: Metastatic and orthotopic animal models of colon cancer, overall statements
Description: Colon cancer HCT116 or HT29 (5×10^6 cells/mouse) in PBS were injected into 4-6-week-old female NOD/SCID mice through the tail vein. Mice were then randomly assigned to different treatment groups by body weight. After 3 days, antibodies were administered through tail vein injection twice a week for four consecutive weeks. Crizotinib was administered daily by oral gavage for 5 days per week (treatment for four weeks). For the therapeutic study, tumor-bearing mice were treated with isotype control IgG1 (15 mg/kg), crizotinib (20 mg/kg), EpAb2-6 (15 mg/kg), or crizotinib (20 mg/kg) combined with EpAb2-6 (15 mg/kg). Mouse survival rate were measured.
Orthotopic tumor models were created as previously reported (Chen et al., 2020). Briefly, NSCID mice were used for orthotopic implantation of HCT116 cells previously infected with Lenti-luc virus (lentivirus containing luciferase gene). The mice were anesthetized by i.p. injection ofAvertin, 2,2,2-Tribromo-ethanol (Sigma-Aldrich) at a dose of 250 mg/kg. Tumor development was monitored by bioluminescence imaging. For the therapeutic study, tumor-bearing mice were treated with isotype control IgG1 (15 mg/kg), crizotinib (20 mg/kg), EpAb2-6 (15 mg/kg), or crizotinib (20 mg/kg) combined with EpAb2-6 (15 mg/kg). Tumor progression was monitored by quantification of bioluminescence. Mouse survival was also monitored.

[5] = test system: HCT116 cells; experiment: Transwell migration/invasion and wound healing assay, HCT116; type: cell-based, human; details: HCT116; 10 μg/ml EpAb2-6 and 10 μM crizotinib; 24 h; vs control IgG; FIG. 7G
Description: FIGS. 3A to 3H. EpEX induces the activation of ERK and FAK-AKT signaling pathway. Wild type (WT) or EpCAM knockout (KO) HCT116 cells after EpEX-His treatment. (FIG. 3A) The levels of phosphorylated HGFR, AKT, FAK, GSK3β, ERK, ADAM17, and presenilin 2 were assayed by Western blotting. (FIG. 3B) Colony formation was examined by crystal violet staining. (FIG. 3C) HCT116 cells were treated with TAPI (ADAM17 inhibitor) or DAPT (γ-secretase inhibitor) for 24 hours, and the phosphorylation of HGFR, AKT, and ERK was analyzed by Western blotting, and EpEX protein level in culture medium was examined by immunoprecipitation and Western blotting. (FIG. 3D) HCT116 and HT29 cells were starved for 16 h, then treated with EpEX-His (50 nM) and HGF (0.5 nM) for 15 min. The levels of phosphorylated HGFR, AKT, and ERK were examined by Western blotting. (FIG. 3E) HCT116 cells were starved for 16 h, then treated with 50 nM EpEX-His for 15 min. HGFR inhibitor SU11274 (SU, 10 μM), AKT inhibitor LY294002 (LY, 25 μM), ERK inhibitor U0126 (U0, 20 μM), or FAK inhibitor PF-562271 (PF, 10 μM) were applied 1 h before EpEX treatment. Phosphorylation of AKT, ERK, and FAK was examined by Western blotting. (FIG. 3F) HCT116 cells were starved for 16 h, then treated with 50 nM EpEX, and SU (10 μM), LY (25 μM), U0 (20 μM) or PF (10 μM). Colony formation was examined by crystal violet staining after treatment for 7 days. The relative colony densities are shown. Migration ability was examined by the (FIG. 3G) wound healing assay at the indicated times. (FIG. 3H) The numbers of migration cell was assessed by a Transwell after treatment for 24 h.
FIGS. 4A to 4L. EpEX induces EMT and invasion by stabilizing β-catenin and Snail through decreasing GSK3β activity. (FIG. 4A) The protein expression of EMT markers and regulators was detected by Western blotting in Wild-type (WT) or EpCAM knockout (KO) HCT116 cells after EpEX treatment. (FIG. 4B) Cell invasion was examined by Transwell chamber assay with matrigel. (FIG. 4C) WT or KO HCT116 and HT29 cells were starved for 16 h, then treated with 0.5 nM of HGF with 2% FBS for 24 h. EMT-related protein expression (E-cadherin, vimentin, and Snail) was examined by Western blotting. (FIG. 4D) WT or KO HCT116 and HT29 cells were treated with HGF (0.5 nM) for 24 h. Invasion by HCT116 and HT29 cells was examined by Transwell chamber assay with matrigel. (FIG. 4E) HCT116 and HT29 cells were starved for 16 h, then treated with 0.5 nM of HGF with 2% FBS for 24 h. EMT-related protein expression (E-cadherin, Vimentin, and Snail) was examined by Western blotting. (FIG. 4F) HCT116 and HT29 cells were starved for 16 h, then treated with 0.5 nM of HGF with 2% FBS for 24 h. Cell invasion was assessed by a Transwell assay with matrigel. (FIG. 4G) HCT116 cells after shLuc and shHGFR treatment were treated with 50 nM of EpEX-His. HCT116 cells after shLuc and shHGFR treatment were treated with 50 nM of EpEX-His with 2% FBS for 24 h. EMT-related protein expression (E-cadherin, Vimentin, and Snail) was examined by Western blotting. (FIG. 4H) Cell invasion was examined by Transwell chamber assay with matrigel. (FIG. 4I) Starved HCT116 cells were treated SU (10 μM) for 1 h, followed by treatment with EpEX-His (50 nM) for 24 h. Phosphorylated GSK3β, active-β-catenin, and Snail were detected by Western blotting. (FIG. 4J) HCT116 cells were starved for 16 h, then treated with 50 nM EpEX-His for 24 min. AKT inhibitor LY294002 (25 μM), ERK inhibitor U0126 (20 μM), or PF-562271 (10 μM) were applied 1 h before EpEX treatment. Protein expression of phosphorylated GSK3β and Snail was examined by Western blotting. (FIG. 4K) HCT116 cells were starved for 16 h, then treated with 50 nM EpEX, and SU (10 μM), LY (25 μM), UO (20 μM) or PF (10 μM). Cell invasion was examined by Transwell chamber assay with matrigel. (FIG. 4L) Protein expression was analyzed by Western blotting in EpEX-His (50 nM) treated HCT116 cells after treatment with or without 2 μM GSK3β inhibitor (BIO) for 24 h. […]

`C[C@@H](Oc1cc(-c2cnn(C3CCNCC3)c2)cnc1N)c1c(Cl)ccc(F)c1Cl` [crizotinib, 3-[(1R)-1-(2,6-dichloro-3-fluorophenyl)ethoxy]-5-(1-piperidin-4-ylpyrazol-4-yl)pyridin-2-amine] was tested, and the “effect of crizotinib on the inhibitory effect of EpAb2-6 on invasion” value [1] was “enhanced the inhibitory effect of EpAb2-6 on invasion”, the “effect of crizotinib on the apoptotic effects of EpAb2-6” value ([2]; 10 μg/ml EpAb2-6 and 4 μM crizotinib 24 h, FIG. 7F) was “enhance the apoptotic effects of EpAb2-6” and the “sensitization of HCT116 cells to antibody-induced apoptosis after crizotinib treatment” value ([2]; discussion statement) was “sensitized to humanized-EpAb2-6- and EpAb2-6-induced apoptosis”. The “effect of crizotinib on the apoptotic effects of EpAb2-6” value [3] was “enhance the apoptotic effects of EpAb2-6”, the survival [4] was “poor survival” and the tumor progression [4] was “developed significant tumors”. For the same compound, the “effect of crizotinib on the inhibitory effect of EpAb2-6 on invasion” value [5] was “enhanced the inhibitory effect of EpAb2-6 on invasion”.
